# Experimental data as given in the supplement of paper PMC10331698.
# ± gives the standard deviation of the averaged measurements.
# Legend:
# Assay in all cases: level (log10 ratio to DMSO vehicle control); higher = higher biomarker level / cell amount than vehicle control
# [1] = compound: C=C(C)C(=O)OCCC(F)(F)C(F)(F)C(F)(F)C(F)(F)C(F)(F)C(F)(F)F [6:2 Fluorotelomer methacrylate]; details: in DMSO
# Method: (§1)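 BioMAP Diversity Plus panel of 12 human primary cell co-culture systems (3C, 4H, LPS, SAg, BT, BF4T, BE3C, CASM3C, HDF3CGF, KF3CT, MyoF, Mphg). Compounds were added 1 h before stimulation and left for 24 h (MyoF 48 h; BT 72 h for soluble read-outs or 6 d for IgG). Biomarkers were read by ELISA, cytotoxicity by SRB, PBMC viability and proliferation by Alamar Blue. Each well value was divided by the mean of 8 DMSO control wells on the same plate and log10 transformed; duplicate blinded samples were tested at 4 concentrations.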
# [2] = compound: C=CC(=O)OCC(F)(F)C(F)(F)C(F)(F)COC(=O)C=C [1H,1H,5H,5H-Perfluoro-1,5-pentanediol diacrylate]; details: 6700 nM; in DMSO
# Method: as §1
# [3] = compound: COC(=O)C(F)(F)C(F)(F)OC(F)(C(F)(F)F)C(F)(F)OC(F)=C(F)F [Methyl perfluoro(3-(1-ethenyloxypropan-2-yloxy)propanoate)]; details: in DMSO
# Method: as §1
# [4] = compound: FC(F)(F)C(F)(F)C(F)(F)C(F)(F)C(F)(F)C(F)(F)C(F)(F)I [1-Iodopentadecafluoroheptane]; details: in DMSO
# Method: as §1
# [5] = compound: FC(F)(F)C(F)(F)C(F)(F)C(F)(F)C(F)(F)C(F)(F)CC1CO1 [3-(Perfluorohexyl)-1,2-epoxypropane]; details: in DMSO
# Method: as §1
# [6] = compound: FC(F)(F)C(F)(F)C(F)(F)CC1CO1 [1H,1H-Heptafluorobutyl epoxide]; details: in DMSO
# Method: as §1
# [7] = compound: FC(F)(F)C(F)(F)C(F)(F)CI [Heptafluorobutyl iodide]; details: in DMSO
# Method: as §1
# [8] = compound: FC(F)(F)C(F)(F)CNCC(F)(F)C(F)(F)F [Bis(1H,1H-perfluoropropyl)amine]; details: in DMSO
# Method: as §1
# [9] = compound: NC(=O)C(F)(F)C(F)(F)C(F)(F)C(F)(F)C(N)=O [Octafluoroadipamide]; details: in DMSO
# Method: as §1
# [10] = compound: NC(=O)C(F)(F)C(F)(F)C(F)(F)C(F)(F)F [Nonafluoropentanamide]; details: in DMSO
# Method: as §1
# [11] = compound: NC(=O)C(F)(F)C(F)(F)C(F)(F)C(F)F; details: in DMSO
# Method: as §1
# [12] = compound: NS(=O)(=O)C(F)(F)C(F)(F)C(F)(F)C(F)(F)C(F)(F)C(F)(F)F [Perfluorohexanesulfonamide]; details: in DMSO
# Method: as §1
# [13] = compound: O=C(O)C(F)(F)C(F)(F)C(F)(F)C(F)(F)C(F)(F)C(F)(F)C(F)(F)C(F)(F)C(F)(F)C(F)F [11-H-Perfluoroundecanoic acid]; details: in DMSO
# Method: as §1
# [14] = compound: O=C(O)C=CC(F)(C(F)(F)F)C(F)(F)F [3-(Perfluoroisopropyl)-2-propenoic acid]; details: in DMSO
# Method: as §1
# [15] = compound: O=S(=O)(Cl)C(F)(F)C(F)(F)C(F)(F)C(F)(F)C(F)(F)C(F)(F)C(F)(F)C(F)(F)F [Perfluoro-1-octanesulfonyl chloride]; details: in DMSO
# Method: as §1
# [16] = compound: O=S(=O)(F)C(F)(F)C(F)(F)C(F)(F)C(F)(F)C(F)(F)C(F)(F)C(F)(F)C(F)(F)F [Perfluorooctanesulfonyl fluoride]; details: in DMSO
# Method: as §1
# [17] = compound: O=S(=O)(O)C(F)(F)C(F)(F)C(F)(F)C(F)(F)C(F)(F)C(F)(F)C(F)(F)C(F)(F)C(F)(F)C(F)(F)F [Sodium perfluorodecanesulfonate]; details: in DMSO
# Method: as §1
# [18] = compound: O=S(=O)(O)CCC(F)(F)C(F)(F)C(F)(F)C(F)(F)C(F)(F)C(F)(F)F [6:2 Fluorotelomer sulfonic acid]; details: in DMSO
# Method: as §1
# [19] = compound: OCC(F)(F)C(F)(F)C(F)(F)CO [Hexafluoroamylene glycol]; details: in DMSO
# Method: as §1
test system,measurement,setting,value
MyoF:Decorin,level (log10),[1]; 6700 nM,-0.0045 ± 0.033
same,level (log10),[1]; 20000 nM,0.0325 ± 0.028
same,level (log10),[1]; 60000 nM,0.015 ± 0.0042
same,level (log10),[2],-0.0325 ± 0.0064
same,level (log10),[3]; 6700 nM,0.0595 ± 0.022
same,level (log10),[3]; 20000 nM,0.07 ± 0.017
same,level (log10),[4]; 6700 nM,0.0365 ± 0.049
same,level (log10),[4]; 20000 nM,0.0215 ± 0.029
same,level (log10),[5]; 6700 nM,0.001 ± 0.03
same,level (log10),[5]; 20000 nM,0.003
same,level (log10),[5]; 60000 nM,0.0265 ± 0.035
same,level (log10),[6]; 6700 nM,-0.01 ± 0.014
same,level (log10),[6]; 20000 nM,-0.009 ± 0.028
same,level (log10),[6]; 60000 nM,0.009 ± 0.035
same,level (log10),[7]; 6700 nM,0.0045 ± 0.016
same,level (log10),[7]; 20000 nM,-0.016 ± 0.0071
same,level (log10),[7]; 60000 nM,0.005 ± 0.0042
same,level (log10),[8]; 6700 nM,-0.005 ± 0.0071
same,level (log10),[8]; 20000 nM,-0.0065 ± 0.021
same,level (log10),[8]; 60000 nM,0.015 ± 0.034
same,level (log10),[9]; 6700 nM,0.0105 ± 0.035
same,level (log10),[9]; 20000 nM,-0.0025 ± 0.0092
same,level (log10),[9]; 60000 nM,0.017 ± 0.028
same,level (log10),[10]; 6700 nM,-0.0155 ± 0.0078
same,level (log10),[10]; 20000 nM,0.013 ± 0.0028
same,level (log10),[10]; 60000 nM,-0.0045 ± 0.00071
same,level (log10),[11]; 6700 nM,0.012 ± 0.0085
same,level (log10),[11]; 20000 nM,-0.0035 ± 0.03
same,level (log10),[11]; 60000 nM,-0.009 ± 0.0085
same,level (log10),[12]; 6700 nM,0.0325 ± 0.076
same,level (log10),[12]; 20000 nM,-0.0095 ± 0.1
same,level (log10),[12]; 60000 nM,-0.03 ± 0.054
same,level (log10),[13]; 6700 nM,0.0415 ± 0.077
same,level (log10),[13]; 20000 nM,0.052 ± 0.031
same,level (log10),[14]; 6700 nM,-0.0045 ± 0.021
same,level (log10),[14]; 20000 nM,0.004 ± 0.0014
same,level (log10),[14]; 60000 nM,0.0225 ± 0.029
same,level (log10),[15]; 6700 nM,-0.007 ± 0.0071
same,level (log10),[15]; 20000 nM,0.014 ± 0.033
same,level (log10),[15]; 60000 nM,0.09 ± 0.085
same,level (log10),[16]; 6700 nM,0.001 ± 0.011
same,level (log10),[16]; 20000 nM,-0.013 ± 0.0042
same,level (log10),[16]; 60000 nM,0.016 ± 0.0057
same,level (log10),[17]; 1500 nM,-0.0285 ± 0.016
same,level (log10),[17]; 4400 nM,0.013 ± 0.0099
same,level (log10),[17]; 13000 nM,-0.0025 ± 0.016
same,level (log10),[17]; 40000 nM,0.034
same,level (log10),[18]; 6700 nM,0.0105 ± 0.0035
same,level (log10),[18]; 20000 nM,0.0015 ± 0.00071
same,level (log10),[18]; 60000 nM,0.0435 ± 0.0021
same,level (log10),[19]; 6700 nM,0.001 ± 0.0042
same,level (log10),[19]; 20000 nM,-0.01 ± 0.0042
same,level (log10),[19]; 60000 nM,-0.015 ± 0.013
MyoF:TIMP-1,level (log10),[1]; 6700 nM,-0.036 ± 0.062
same,level (log10),[1]; 20000 nM,-0.0135 ± 0.066
same,level (log10),[1]; 60000 nM,-0.017 ± 0.041
same,level (log10),[2],-0.002 ± 0.0014
same,level (log10),[3]; 6700 nM,0.018 ± 0.011
same,level (log10),[3]; 20000 nM,0.0085 ± 0.039
same,level (log10),[4]; 6700 nM,0.049 ± 0.0057
same,level (log10),[4]; 20000 nM,-0.0605 ± 0.0092
same,level (log10),[5]; 6700 nM,-0.0295 ± 0.046
same,level (log10),[5]; 20000 nM,-0.028 ± 0.027
same,level (log10),[5]; 60000 nM,0.033 ± 0.03
same,level (log10),[6]; 6700 nM,-0.025 ± 0.018
same,level (log10),[6]; 20000 nM,-0.023 ± 0.035
same,level (log10),[6]; 60000 nM,-0.0125 ± 0.015
same,level (log10),[7]; 6700 nM,-0.059 ± 0.088
same,level (log10),[7]; 20000 nM,-0.068 ± 0.068
same,level (log10),[7]; 60000 nM,-0.0755 ± 0.063
same,level (log10),[8]; 6700 nM,-0.0225 ± 0.039
same,level (log10),[8]; 20000 nM,0.0005 ± 0.067
same,level (log10),[8]; 60000 nM,-0.0035 ± 0.0064
same,level (log10),[9]; 6700 nM,-0.0325 ± 0.023
same,level (log10),[9]; 20000 nM,0.004 ± 0.033
same,level (log10),[9]; 60000 nM,0.021 ± 0.021
same,level (log10),[10]; 6700 nM,-0.019 ± 0.0057
same,level (log10),[10]; 20000 nM,0.01 ± 0.035
same,level (log10),[10]; 60000 nM,0.001 ± 0.0085
same,level (log10),[11]; 6700 nM,-0.031 ± 0.011
same,level (log10),[11]; 20000 nM,-0.024 ± 0.023
same,level (log10),[11]; 60000 nM,-0.0505 ± 0.00071
same,level (log10),[12]; 6700 nM,0.019 ± 0.037
same,level (log10),[12]; 20000 nM,0.017 ± 0.045
same,level (log10),[12]; 60000 nM,0.021 ± 0.051
same,level (log10),[13]; 6700 nM,0.0255 ± 0.029
same,level (log10),[13]; 20000 nM,0.063 ± 0.0057
same,level (log10),[14]; 6700 nM,-0.0285 ± 0.00071
same,level (log10),[14]; 20000 nM,-0.0085 ± 0.013
same,level (log10),[14]; 60000 nM,0.0535 ± 0.037
same,level (log10),[15]; 6700 nM,-0.009 ± 0.044
same,level (log10),[15]; 20000 nM,0.0035 ± 0.043
same,level (log10),[15]; 60000 nM,0.148 ± 0.031
same,level (log10),[16]; 6700 nM,0.006 ± 0.0099
same,level (log10),[16]; 20000 nM,0.0035 ± 0.016
same,level (log10),[16]; 60000 nM,0.004 ± 0.0014
same,level (log10),[17]; 1500 nM,-0.037 ± 0.014
same,level (log10),[17]; 4400 nM,-0.0445 ± 0.016
same,level (log10),[17]; 13000 nM,-0.0415 ± 0.04
same,level (log10),[17]; 40000 nM,-0.0725 ± 0.044
same,level (log10),[18]; 6700 nM,-0.032 ± 0.052
same,level (log10),[18]; 20000 nM,0.031 ± 0.042
same,level (log10),[18]; 60000 nM,0.097 ± 0.011
same,level (log10),[19]; 6700 nM,-0.041 ± 0.05
same,level (log10),[19]; 20000 nM,-0.0385 ± 0.06
same,level (log10),[19]; 60000 nM,-0.039 ± 0.065
